Measurements taken from patent EP0753009B1, “MALARIA PEPTIDES” (Oxxon Pharmaccines Limited, priority 1994, dated 2001).
Marks after values point to notes of the source that are not given here. Residues, ends and D or L forms follow the SMILES beside them.

Tested on: HLA matched or autologous B cell line targets pre-pulsed with the peptide
Assay: Standard CTL chromium release assay with restimulated lymphocytes from malaria-exposed Gambians (secondary CTL response)
Format: cell-based, humans
Settings: HLA-A2
Method: Peptides shown to bind to a particular HLA class I allele were tested for CTL recognition in assays using lymphocytes from malaria-exposed Gambians, as described previously^1. A minority of peptides, synthesized to correspond to a peptides binding motif were not tested in the relevant assembly assay but tested only for CTL recognition. Cells from 82 adult Gambians and 53 Gambian children, all exposed to malaria, were used in the course of these studies. The children and adults were HLA typed using cellular or molecular techniques as described previously^1. Peptides were incubated with cells either singly, or in pools as described^1 at concentrations of 10-100µM. Peptides could either be left with the cells for the duration of restimulation (as reported^1) or washed off after an hour. Cells were cultured for 1-3 weeks before a standard CTL chromium release assay^1 was performed using HLA matched or autologous B cell line targets pre-pulsed with the peptide to be tested. Peptides were tested either singly or in pools for CTL recognition.

CC[C@H](C)[C@H](NC(=O)[C@@H](NC(=O)[C@H](CCCCN)NC(=O)[C@H](CC(C)C)NC(=O)[C@@H](N)Cc1ccc(O)cc1)[C@@H](C)O)C(=O)N[C@@H](CCC(N)=O)C(=O)N[C@@H](CC(N)=O)C(=O)N[C@@H](CO)C(=O)N[C@@H](CC(C)C)C(=O)O [cp36] (H-YLKTIQNSL-OH)
epitope for a secondary cytotoxic T lymphocyte response (asterisk mark): cp36 *

CC[C@H](C)[C@H](NC(=O)[C@H](CCCCN)NC(=O)[C@H](CCC(N)=O)NC(=O)[C@H](CC(C)C)NC(=O)[C@@H](N)Cc1ccc(O)cc1)C(=O)N[C@@H](CCC(N)=O)C(=O)N[C@@H](CC(N)=O)C(=O)N[C@@H](CO)C(=O)N[C@@H](CC(C)C)C(=O)O [cp37] (H-YLQKIQNSL-OH)
epitope for a secondary cytotoxic T lymphocyte response (asterisk mark): cp37 *

CC[C@H](C)[C@H](NC(=O)[C@H](CCCCN)NC(=O)[C@H](CCC(N)=O)NC(=O)[C@H](CC(C)C)NC(=O)[C@@H](N)Cc1ccc(O)cc1)C(=O)N[C@@H](CCCCN)C(=O)N[C@@H](CC(N)=O)C(=O)N[C@@H](CO)C(=O)N[C@@H](CC(C)C)C(=O)O [cp38] (H-YLQKIKNSL-OH)
epitope for a secondary cytotoxic T lymphocyte response (asterisk mark): cp38 *

CC(C)C[C@H](NC(=O)[C@H](Cc1ccc(O)cc1)NC(=O)[C@H](CCCCN)NC(=O)[C@@H](NC(=O)[C@H](CC(N)=O)NC(=O)CNC(=O)[C@H](CC(C)C)NC(=O)[C@@H](N)Cc1c[nH]cn1)C(C)C)C(=O)N[C@H](C(=O)O)C(C)C [tr26] (H-HLGNVKYLV-OH)
epitope for a secondary cytotoxic T lymphocyte response (asterisk mark): tr26 *

CC[C@H](C)[C@H](NC(=O)CN)C(=O)N[C@@H](C)C(=O)NCC(=O)NCC(=O)N[C@@H](CC(C)C)C(=O)N[C@@H](C)C(=O)N[C@@H](CC(C)C)C(=O)N[C@@H](CC(C)C)C(=O)O [tr39] (H-GIAGGLALL-OH)
epitope for a secondary cytotoxic T lymphocyte response (asterisk mark): tr39 *
